What was measured:
[1] = test system: Bacillus cerreus ATCC 14579; assay: MIC, serial broth microdilution, B. cerreus; type: cell-based; details: 24 h, 37 °C
Method: The values of MIC, defined as the lowest concentration of antimicrobial complex that prevents visible growth of germs, are presented in Table S4 in the Supplementary Material. To quantify the copper complexes effectiveness as antibacterial agents, their minimum inhibitory concentrations (MICs) were determined using the serial broth microdilution method described by Quinn et al. and Markey et al.. The method was adapted for the purposes of the current study, according to the standards developed by the Clinical and Laboratory Standards Institute. The tests were performed on the same Gram-positive and Gram-negative reference microbial strains. Ten successive dilutions of the copper complexes solutions (1/2 to 1/1024) in nutrient broth (Merck KGaA, Darmstadt, Germany) were performed and then were placed in sterile microplates (one each for every copper complex). The microplates were incubated at 37 ± 2 °C for 24 h. Comparisons of the amount of bacterial growth in each well containing copper complexes solutions with the amount of growth in the growth control wells were performed and the maximal dilution for which the tested copper complexes inhibited bacterial growth was determined.

[2] = SOD mimetic activity, xanthine/xanthine oxidase system, NBT reduction; type: biochemical; details: pH 7.8, read-out: SOD-like activity IC50 (50% inhibition of NBT reduction)
Method: The SOD-like activities of complexes C1 and C2 were determined by an indirect method using the xanthine/xanthine oxidase system as the source of superoxide radicals. […] The IC50 value for native Cu2Zn2SOD is 0.006 μΜ. Thus, the IC50 values for both complexes are higher than the IC50 value for native Cu2Zn2SOD but are similar to those of complexes with related sulfonamide ligands presented in the literature.
The in vitro SOD mimetic activities of the complexes were assayed using the Oberley and Spitz method with some minor modifications. To generate a reproductible and constant flux of superoxide anions, xanthine (1.5 × 10^−4 M) and xanthine oxidase in 50 mM potassium phosphate buffer, pH = 7.8, were used. The superoxide anions were detected by the reduction of nitro blue tetrazolium (NBT) (5.6 × 10^−5 M) to blue formazane, which was determined spectrophotometrically at 560 nm. Different concentrations of the complexes (50, 25, 12.5, 2, and 0.2 μM) were prepared in 50 mM Tris-HCl buffer, pH = 7.8. For each determination, 0.1 mL complex solution + 0.1 mL xanthine oxidase were added to 0.8 mL of solution containing 0.69 mL potassium phosphate buffer (pH = 7.8), 0.025 mL NBT, and […]. The inhibition percentage of NBT reduction was used to determine the SOD activities of the complexes. The conversion of xanthine to uric acid was measured at 310 nm. The % inhibition of enzyme activity was subtracted from that of NBT. The IC50 values (the concentration of complex needed to yield 50% inhibition of NBT reduction) were determined from plots of % inhibition versus complex concentration. A Specord 200 Plus Spectrophotometer was used to perform the determinations and all reagents were purchased from Sigma-Aldrich.

[3] = test system: human cervical carcinoma line (HeLa); assay: MTT cytotoxicity assay, HeLa; type: cell-based; details: HeLa cells
Method: (§1) Three cell lines were used to determine the cytotoxicity of the complexes, a human cervical carcinoma line (HeLa), a human radical growth phase melanoma cell line (WM35), and a normal fibroblastic epithelial cell line (HFL1) using the MTT method. The cells were exposed to C1 and C2 complexes in different concentrations (50, 25, 12.5, 2, and 0.2 µM) at 24, 48, and 72 h. As positive contro, cisplatin was used.
(§2) To determine the cytotoxicity of the copper complexes, three cell lines were used: a human cervical carcinoma line (HeLa), a human radical growth phase melanoma cell line (WM35), and a normal fibroblastic epithelial cell line (HFL1). The cell lines were obtained from ATCC (American Type Cell Collection, Manassas, VA 20110-2209, USA) and were maintained in DMEM (Sigma-Aldrich, Saint Louis, Missouri, USA) supplemented with 10% fetal bovine serum (Hyclone), 1 mM glutamine (Sigma-Aldrich), and 1% antibiotic antimycotic 100× (Sigma-Aldrich). The cells were cultured at 37 °C in an atmosphere of 5% CO2 and 95% relative humidity.
(§3) The cytotoxicity assays were performed using the MTT assay (3-(4,5-dimethylthiazol-2-yl)-2,5-diphenyl tetrazolium bromide-Sigma Aldrich). Cells were plated at a density of 1 × 10^5 cells/well in 96-well plates for 24 h in normal propagation media. The cultures were then exposed to C1 and C2 complexes in different concentrations (50, 25, 12.5, 2, and 0.2 µM). The complexes were first solubilized in DMSO (Sigma) and then serial dilutions in media were performed until the final concentration of DMSO was less than 1%. As a positive control, cisplatin (Ebewe Pharma Ges.m.b.H. Nfg. KG, Austria) was used, in the same concentrations as the complexes. As a negative control, cell lines cultivated in normal expansion medium with the same amount of DMSO added were used. The cellular viability was determined using the MTT assay at 24, 48, and 72 h, respectively. Formazan particles were solubilized with DMSO and absorbances were determined at 550 nm using a microplate reader (Bio-Rad, Hercules, CA, USA). The cytotoxic activity, expressed as IC50 values representing the complex solution required to inhibit 50% of the cell proliferation, were calculated from the calibration curve by nonlinear regression. Each experiment was carried out in triplicate.

[4] = test system: human radical growth phase melanoma cell line (WM35); assay: MTT cytotoxicity assay, WM35; type: cell-based; details: for IC50: WM35 cells, MTT
Method: as §1, §2, §3

| Substance | MIC [1] | IC50 [2] | IC50 ([3]; 24 h) | IC50 ([3]; 48 h) | IC50 ([3]; 72 h) | IC50 value compared with cisplatin ([4]; WM35 cell lines, 24 h) | IC50 ([4]; 24 h) | IC50 ([4]; 48 h) | IC50 ([4]; 72 h) |
| --- | --- | --- | --- | --- | --- | --- | --- | --- | --- |
| [Cu(N-(5-Ethyl--[1,3,4]-Thiadiazole-2-yl) Naphtalenesulfonamidate)2(py)2(H2O)] [C2] | 0.293 µg/mL | 0.174 µM | 8.79 ± 0.21 µM | 4.06 ± 0.05 µM | 1.45 ± 0.09 µM | about two times lower | 13 ± 0.15 µM | 8.11 ± 0.13 µM | 4.66 ± 0.07 µM |
| [Cu(N-(5-(4-Methylphenyl)-[1,3,4]-Thiadiazole-2-yl) Naphtalenesulfonamidate)2(H2O)3] [C1] | 0.304 µg/mL | 0.283 µM | 33.18 ± 0.19 µM | 16.36 ± 0.12 µM | 6.47 ± 0.06 µM |  | 41.35 ± 0.19 µM | 23.87 ± 0.17 µM | 15.42 ± 0.08 µM |
